Reference: patent US8759334B2, “Compounds useful for the treatment of metabolic and inflammatory diseases” (Galapagos NV, priority 2011, dated 2014)
pIC50: −log10 of the molar value.

Target: T1, GPR43 (Homo sapiens, UniProt O15552)
T1 construct: expressed in transfected cells
T1 sequence (O15552 1-330): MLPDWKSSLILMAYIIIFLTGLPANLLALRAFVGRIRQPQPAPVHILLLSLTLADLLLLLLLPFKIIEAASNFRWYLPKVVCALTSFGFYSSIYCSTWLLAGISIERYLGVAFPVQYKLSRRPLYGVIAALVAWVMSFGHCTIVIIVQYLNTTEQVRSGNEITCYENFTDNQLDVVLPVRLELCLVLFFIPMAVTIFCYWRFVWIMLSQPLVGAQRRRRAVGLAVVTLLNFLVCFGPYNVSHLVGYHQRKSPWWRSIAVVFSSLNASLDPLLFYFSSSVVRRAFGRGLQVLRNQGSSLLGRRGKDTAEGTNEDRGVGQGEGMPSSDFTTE
Experiment: Calcium mobilization assay with probenecid
Format: cell-based
Conditions: GPR43 stably expressing cells; triggered with sodium acetate at EC80; 2.5 mM probenecid; read-out: GPR43 assay with probenicid IC50
Description: The following assay can be used for determination of GPR43 activation. The assay measures intracellular calcium release induced by activation of GPR43. On day 1, GPR43 stably expressing cells were detached with mild trypsinization (Trypsin, 0.25% with EDTA 4Na, 5× diluted in PBS) centrifuged at 1000 rpm for 5 min and resuspended at 6.000 cells/25 […] medium (DMEM supplemented with 10% FBS, 10 μg/mL puromycin and 1% Pen/Strep). The cells were distributed in poly-D-lysine coated 384 well plates (black with clear bottom, 25 μL/well) and incubated overnight at 37° C. 10% CO2.
On day 2, 25 μL of a fluorescent Ca^2+ indicator (Calcium 4 assay; Molecular Devices) supplemented with 2.5 mM probenecid was added on top of the cells and incubated for 2 h at 37° C. Subsequently, compounds at increasing concentration (10 μL/well) were added to the plate and incubated for 15 min at 37° C.
To measure agonist activity of the compounds, compound was added to the well and the Ca^2+-flux was measured simultaneously to the […] of compound.

SMILES | pIC50
CC1(C(=O)N(CCCC(=O)O)Cc2ccc(Cl)cc2)CCN1C(=O)Oc1cc(C(F)(F)F)ccc1Cl (stereo not drawn) [Compound 236, 4-(1-((2-chloro-5-(trifluoromethyl)phenoxy)carbonyl)-N-(4-chlorobenzyl)-2-methylazetidine-2-carboxamido)butanoic acid] | < 6.00
CC1(C(=O)N(CCCC(N)=O)Cc2ccc(Cl)cc2)CCN1C(=O)Cc1csc2ccccc12 (stereo not drawn) [Compound 127, 1-(2-Benzo[b]thiophen-3-yl-acetyl)-2-methyl-azetidine-2-carboxylic acid (3-carbamoyl-propyl)-(4-chloro-benzyl)-amide] | < 6.00
CC1(C(=O)N(CCCC(=O)O)c2ccccn2)CCN1C(=O)c1csc2ccccc12 (stereo not drawn) [Compound 253, 4-(1-(benzo[b]thiophene-3-carbonyl)-2-methyl-N-(pyridin-2-yl)azetidine-2-carboxamido)butanoic acid] | < 6.00
Cc1cc(C)cc(N(C)C(=O)N2CCC2(C)C(=O)N(CCCC(=O)O)Cc2ccc(Cl)cc2)c1 (stereo not drawn) [Compound 201, 4-((4-Chloro-benzyl)-{1-[(3,5-dimethyl-phenyl)-methyl-carbamoyl]-2-methyl-azetidine-2-carbonyl}-amino)-butyric acid] | < 6.00
CC1(C(=O)N(CCC(=O)O)Cc2ccc(Cl)cc2)CCN1C(=O)Cc1coc2ccccc12 (stereo not drawn) [Compound 154, 3-[[1-(2-Benzofuran-3-yl-acetyl)-2-methyl-azetidine-2-carbonyl]-(4-chloro-benzyl)-amino]-propionic acid] | < 6.00
COc1ccccc1CC1(C(=O)N(CCCC(=O)O)Cc2cccc(Cl)c2)CCN1C(=O)c1csc2ccccc12 (stereo not drawn) [Compound 247, 4-(1-(benzo[b]thiophene-3-carbonyl)-N-(3-chlorobenzyl)-2-(2-methoxybenzyl)azetidine-2-carboxamido)butanoic acid] | < 6.00
CC1(C(=O)N(CCCC(=O)N2CCOCC2)Cc2ccc(Cl)cc2)CCN1C(=O)c1csc2ccccc12 (stereo not drawn) [Compound 139, 1-(benzo[b]thiophene-3-carbonyl)-N-(4-chlorobenzyl)-2-methyl-N-(4-morpholino-4-oxobutyl)azetidine-2-carboxamide] | < 6.00
COC(=O)[C@@H](C)N(Cc1ccc(Cl)cc1)C(=O)C1(C)CCN1C(=O)Cc1cc(C)cc(C)c1 (stereo partly drawn) [Compound 73, (R)-2-((4-Chloro-benzyl)-{1-[2-(3,5-dimethyl-phenyl)-acetyl]-2-methyl-azetidine-2-carbonyl}-amino)-propionic acid methyl ester] | 6.00 to 6.30
Cc1cc(C)cc(CC(=O)N2CCC2(C)C(=O)N(CCc2nnc(O)o2)Cc2ccc(Cl)cc2)c1 (stereo not drawn) [Compound 119, 1-[2-(3,5-Dimethyl-phenyl)-acetyl]-2-methyl-azetidine-2-carboxylic acid (4-chloro-benzyl)-[2-(5-hydroxy-[1,3,4]oxadiazol-2-yl)-ethyl]-amide] | < 6.00
Cc1cc(C)cc(CC(=O)N2CCC2(C)C(=O)N(CCc2cc(O)[nH]n2)Cc2ccc(Cl)cc2)c1 (stereo not drawn) [Compound 116, 1-[2-(3,5-Dimethyl-phenyl)-acetyl]-2-methyl-azetidine-2-carboxylic acid (4-chloro-benzyl)-[2-(5-hydroxy-1H-pyrazol-3-yl)-ethyl]-amide] | < 6.00
Cc1cc(C)cc(CC(=O)N2CCC2(C)C(=O)N(Cc2ccc(Cl)cc2)Cc2noc(O)n2)c1 (stereo not drawn) [Compound 114, 1-[2-(3,5-Dimethyl-phenyl)-acetyl]-2-methyl-azetidine-2-carboxylic acid (4-chloro-benzyl)-(5-hydroxy-[1,2,4]oxadiazol-3-ylmethyl)-amide] | 6.00 to 6.30

The next lines start with the values.

pIC50 | SMILES
6.30 to 7.00 | CC[C@@]1(C(=O)N(CCCS(N)(=O)=O)[C@@H](C)c2ccc(Cl)cc2)CCN1C(=O)c1csc2ccccc12 [Compound 245, (S)-1-(benzo[b]thiophene-3-carbonyl)-N-((S)-1-(4-chlorophenyl)ethyl)-2-ethyl-N-(3-sulfamoylpropyl)azetidine-2-carboxamide]
6.00 to 6.30 | Cc1cc(C)cc(CC(=O)N2CCC2(C)C(=O)N(Cc2ccc(Cl)cc2)Cc2nnc(O)o2)c1 (stereo not drawn) [Compound 111, 1-[2-(3,5-Dimethyl-phenyl)-acetyl]-2-methyl-azetidine-2-carboxylic acid (4-chloro-benzyl)-(5-hydroxy-[1,3,4]oxadiazol-2-ylmethyl)-amide]
6.00 to 6.30 | Cc1cc(C)cc(CC(=O)N2CCC2(C)C(=O)N(CC(=O)NS(=O)(=O)c2ccccc2)Cc2ccc(Cl)cc2)c1 (stereo not drawn) [Compound 104, 1-[2-(3,5-Dimethyl-phenyl)-acetyl]-2-methyl-azetidine-2-carboxylic acid (2-benzenesulfonylamino-2-oxo-ethyl)-(4-chloro-benzyl)-amide]
7.00 to 11.00 | CNS(=O)(=O)CCCN(Cc1cccc(Cl)c1)C(=O)C1(C)CCN1C(=O)c1csc2ccccc12 (stereo not drawn) [Compound 190, 1-(Benzo[b]thiophene-3-carbonyl)-2-methyl-azetidine-2-carboxylic acid (3-chloro-benzyl)-(3-methylsulfamoyl-propyl)-amide]
6.30 to 7.00 | CCOC(=O)CCCN(Cc1ccc2cn[nH]c2c1)C(=O)C1(C)CCN1C(=O)c1csc2ccccc12 (stereo not drawn) [Compound 153, 4-[[1-(Benzo[b]thiophene-3-carbonyl)-2-methyl-azetidine-2-carbonyl]-(1H-indazol-6-ylmethyl)-amino]-butyric acid ethyl ester]
6.30 to 7.00 | CC1(C(=O)N(CCCC(=O)O)Cc2ccc(Cl)cc2)CCN1C(=O)Cc1cccc2sccc12 (stereo not drawn) [Compound 136, 4-[[1-(2-Benzo[b]thiophen-4-yl-acetyl)-2-methylazetidine-2-carbonyl]-(4-chloro-benzyl)-amino]-butyric acid]
6.30 to 7.00 | COc1cccc(CC2(C(=O)N(CCCC(=O)O)Cc3cccc(Cl)c3)CCN2C(=O)c2csc3ccccc23)c1 (stereo not drawn) [Compound 221, 4-(1-(benzo[b]thiophene-3-carbonyl)-N-(3-chlorobenzyl)-2-(3-methoxybenzyl)azetidine-2-carboxamido)butanoic acid]
6.30 to 7.00 | CCOC(=O)CCCN(Cc1ccc2cn[nH]c2c1)C(=O)C1(C)CCN1C(=O)Cc1coc2ccccc12 (stereo not drawn) [Compound 152, 4-[[1-(2-Benzofuran-3-yl-acetyl)-2-methyl-azetidine-2-carbonyl]-(1H-indazol-6-ylmethyl)-amino]-butyric acid ethyl ester]
6.30 to 7.00 | CC1(C(=O)N(CCCC(N)=O)Cc2ccc(Cl)cc2)CCN1C(=O)Cc1coc2ccccc12 (stereo not drawn) [Compound 166, 1-(2-Benzofuran-3-yl-acetyl)-2-methyl-azetidine-2-carboxylic acid (3-carbamoyl-propyl)-(4-chloro-benzyl)-amide]
7.00 to 11.00 | CCC1(C(=O)N(CCCC(=O)NS(C)(=O)=O)Cc2cccc(Cl)c2)CCN1C(=O)c1csc2ccccc12 (stereo not drawn) [Compound 228, 1-(benzo[b]thiophene-3-carbonyl)-N-(3-chlorobenzyl)-2-ethyl-N-(4-(methylsulfonamido)-4-oxobutyl)azetidine-2-carboxamide]
6.30 to 7.00 | Cc1cc(C)cc(CC(=O)N2CCC2(C)C(=O)N(CCc2nnn[nH]2)Cc2ccc(Cl)cc2)c1 (stereo not drawn) [Compound 109, 1-[2-(3,5-Dimethyl-phenyl)-acetyl]-2-methyl-azetidine-2-carboxylic acid (4-chloro-benzyl)-[2-(1H-tetrazol-5-yl)-ethyl]-amide]
7.00 to 11.00 | CC1(C(=O)N(CCCC(=O)O)Cc2ccc(Cl)cc2)CCN1C(=O)Oc1csc2ccccc12 (stereo not drawn) [Compound 211, 4-(1-((benzo[b]thiophen-3-yloxy)carbonyl)-N-(4-chlorobenzyl)-2-methylazetidine-2-carboxamido)butanoic acid]
6.30 to 7.00 | Cc1cc(C)cc(CC(=O)N2CCC2(C)C(=O)N(CCCS(N)(=O)=O)Cc2ccc(Cl)cc2)c1 (stereo not drawn) [Compound 171, 1-[2-(3,5-Dimethyl-phenyl)-acetyl]-2-methyl-azetidine-2-carboxylic acid (4-chloro-benzyl)-(3-sulfamoyl-propyl)-amide]
6.30 to 7.00 | CCC1(C(=O)N(CCCS(N)(=O)=O)c2ccc(Cl)cc2)CCN1C(=O)c1csc2ccccc12 (stereo not drawn) [Compound 246, 1-(benzo[b]thiophene-3-carbonyl)-N-(4-chlorophenyl)-2-ethyl-N-(3-sulfamoylpropyl)azetidine-2-carboxamide]
6.30 to 7.00 | CC(C)C1(C(=O)N(CCCC(=O)NS(C)(=O)=O)Cc2cccc(Cl)c2)CCN1C(=O)c1csc2ccccc12 (stereo not drawn) [Compound 233, 1-(benzo[b]thiophene-3-carbonyl)-N-(3-chlorobenzyl)-2-isopropyl-N-(4-(methylsulfonamido)-4-oxobutyl)azetidine-2-carboxamide]
6.30 to 7.00 | CC1(C(=O)N(CCCC(=O)O)c2cccc(C(F)(F)F)c2)CCN1C(=O)c1csc2ccccc12 (stereo not drawn) [Compound 251, 4-(1-(benzo[b]thiophene-3-carbonyl)-2-methyl-N-(3-(trifluoromethyl)phenyl)azetidine-2-carboxamido)butanoic acid]
